Several values for one entry are separate records, joined by “and”; a condition that tells them apart may be missing. Equal entries are not always repeated.
What was measured:
Assay in all cases: Pre-emergence action against weeds (greenhouse)
Assay type in all cases: in vivo
[1] = system: ALOMY—sensitive (Alopecurus myosuroides)
From the text: (§1) Depending on the trial conditions, the soil of the standard field soil is sterile or not sterile.
(§2) The amount of water used for spray application was 300l/ha.
ALOMY—sensitive (Alopecurus myosuroides) sensitive to customary herbicidally active compounds.
(§3) Insofar as herbicidal effects of the compositions according to the invention compared to mixtures of the prior art or compared to components applied individually against economically important mono- and dicotyledonous harmful plants were the centre of attention, the synergistic herbicidal activities were calculated using Colby's formula (cf. S. R. Colby; Weeds 15 (1967), 20-22): […]

[2] = system: ALOMY—resistant (Alopecurus myosuroides)
From the text: as §1, §2
ALOMY—resistant (Alopecurus myosuroides) resistant to herbicidally active compounds of the HRAC groups A and B; population mixture of field origin having increased metabolic resistance (IMR) and some target site resistance (TSR).
as §3

[3] = system: LOLRI—sensitive (Lolium rigidum)
From the text: as §1, §2
LOLRI—sensitive (Lolium rigidum) sensitive to customary herbicidally active compounds.
as §3

[4] = system: LOLRI—resistant (Lolium rigidum)
From the text: as §1, §2
LOLRI—resistant (Lolium rigidum) resistant to herbicidally active compounds of the HRAC groups A and B; population mixture of field origin having increased metabolic resistance (IMR) and some target site resistance (TSR).
as §3

[5] = system: AVEFA (Avenafatua)
From the text: as §1, §2
AVEFA (Avenafatua)—Wild oat
as §3

[6] = system: BROST (Bromus sterilis)
From the text: as §1, §2
BROST (Bromus sterilis)—Bromegrass, barren
as §3

[7] = system: PAPRH (Papaver rhoeas)
From the text: as §1, §2
PAPRH (Papaver rhoeas)—Poppy, common
as §3

[8] = system: SORHA (Sorghum halepense)
From the text: as §1, §2
SORHA (Sorghum halepense)—Johnsongrass
as §3

[9] = system: CENCY (Centaurea cyanus)
From the text: as §1, §2
CENCY (Centaurea cyanus)—Cornflower
as §3

[10] = system: VERHE (Veronica hederaefolia)
From the text: as §1, §2
VERHE (Veronica hederaefolia)—Speedwell, iveleaf
as §3

[11] = system: EMEAU (Emex australis)
From the text: as §1, §2
EMEAU (Emex australis)—Cathead
as §3

[12] = system: RAPRA (Raphanus raphanistrum)
From the text: as §1, §2
RAPRA (Raphanus raphanistrum)—Charlock, jointed
as §3

[13] = system: BRSNW (Brassica napus)
From the text: as §1, §2
BRSNW (Brassica napus)—Rape, winter
as §3

[14] = system: TRZAS (Triticum aestivum)
From the text: as §1, §2
TRZAS (Triticum aestivum)—Wheat, spring
as §3

[15] = system: HORVS (Hordeum vulgare)
From the text: as §1, §2
HORVS (Hordeum vulgare)—Barley, spring
as §3

## Cc1ccccc1CO[C@@H]1C[C@@]2(C(C)C)CC[C@]1(C)O2 (racemic) [Cinmethylin, (+/−)-2-exo-(2-methylbenzyloxy)-1-methyl-4-isopropyl-7-oxabicyclo[2.2.1]heptane]
[1]; 10 g AS/ha
  herbicidal action: 0%
[1]; 25 g AS/ha
  herbicidal action: 80%
[1]; 50 g AS/ha
  herbicidal action: 80%
[1]; 100 g AS/ha
  herbicidal action: 90%
[1]; 250 g AS/ha
  herbicidal action: 100%
[1]; 500 g AS/ha
  herbicidal action: 100%
[1]; pre-emergence, dose 50 g AS/ha
  Herbicidal action ALOMY sensitive: 80
[2]; 10 g AS/ha
  herbicidal action: 0%
[2]; 25 g AS/ha
  herbicidal action: 60%
[2]; 50 g AS/ha
  herbicidal action: 70%
[2]; 100 g AS/ha
  herbicidal action: 70%
[2]; 250 g AS/ha
  herbicidal action: 90%
[2]; 500 g AS/ha
  herbicidal action: 100%
[2]; pre-emergence, dose 50 g AS/ha
  Herbicidal action ALOMY resistant: 70
[3]; 10 g AS/ha
  herbicidal action: 0%
[3]; 25 g AS/ha
  herbicidal action: 70%
[3]; 50 g AS/ha
  herbicidal action: 90%
[3]; 100 g AS/ha
  herbicidal action: 100%
[3]; 250 g AS/ha
  herbicidal action: 100%
[3]; 500 g AS/ha
  herbicidal action: 100%
[3]; pre-emergence, dose 50 g AS/ha
  Herbicidal action LOLRI sensitive: 90
[4]; 10 g AS/ha
  herbicidal action: 0%
[4]; 25 g AS/ha
  herbicidal action: 70%
[4]; 50 g AS/ha
  herbicidal action: 85% and 100%
[4]; 100 g AS/ha
  herbicidal action: 100%
[4]; 250 g AS/ha
  herbicidal action: 100%
[4]; 500 g AS/ha
  herbicidal action: 100%
[4]; pre-emergence, dose 50 g AS/ha
  Herbicidal action LOLRI resistant: 100
[5]; 10 g AS/ha
  herbicidal action: 0%
[5]; 25 g AS/ha
  herbicidal action: 0%
[5]; 50 g AS/ha
  herbicidal action: 0%
[5]; 100 g AS/ha
  herbicidal action: 25%
[5]; 250 g AS/ha
  herbicidal action: 50%
[5]; 500 g AS/ha
  herbicidal action: 70%
[5]; pre-emergence, dose 50 g AS/ha
  Herbicidal action AVEFA: 0
[6]; 10 g AS/ha
  herbicidal action: 0%
[6]; 25 g AS/ha
  herbicidal action: 20%
[6]; 50 g AS/ha
  herbicidal action: 50%
[6]; 100 g AS/ha
  herbicidal action: 100%
[6]; 250 g AS/ha
  herbicidal action: 100%
[6]; 500 g AS/ha
  herbicidal action: 100%
[6]; pre-emergence, dose 50 g AS/ha
  Herbicidal action BROST: 50
[7]; 10 g AS/ha
  herbicidal action: 0%
[7]; 25 g AS/ha
  herbicidal action: 0%
[7]; 50 g AS/ha
  herbicidal action: 0%
[8]; 50 g AS/ha
  herbicidal action: 65%
[8]; 100 g AS/ha
  herbicidal action: 70%
[8]; 250 g AS/ha
  herbicidal action: 80%
[8]; 500 g AS/ha
  herbicidal action: 100%
[8]; pre-emergence, dose 50 g AS/ha
  Herbicidal action SORHA: 65
[9]; 50 g AS/ha
  herbicidal action: 0%
[9]; 100 g AS/ha
  herbicidal action: 0%
[9]; 250 g AS/ha
  herbicidal action: 30%
[9]; 500 g AS/ha
  herbicidal action: 80%
[9]; pre-emergence, dose 50 g AS/ha
  Herbicidal action CENCY: 0
[10]; 10 g AS/ha
  herbicidal action: 0%
[10]; 25 g AS/ha
  herbicidal action: 0%
[10]; 50 g AS/ha
  herbicidal action: 0%
[10]; 100 g AS/ha
  herbicidal action: 0%
[10]; 250 g AS/ha
  herbicidal action: 0%
[10]; 500 g AS/ha
  herbicidal action: 0%
[10]; pre-emergence, dose 50 g AS/ha
  Herbicidal action VERHE: 0
[11]; 10 g AS/ha
  herbicidal action: 0%
[11]; 25 g AS/ha
  herbicidal action: 0%
[11]; 50 g AS/ha
  herbicidal action: 0%
[11]; 100 g AS/ha
  herbicidal action: 0%
[11]; 250 g AS/ha
  herbicidal action: 0%
[11]; 500 g AS/ha
  herbicidal action: 0%
[11]; pre-emergence, dose 50 g AS/ha
  Herbicidal action EMEAU: 0
[12]; 10 g AS/ha
  herbicidal action: 0%
[12]; 25 g AS/ha
  herbicidal action: 0%
[12]; 50 g AS/ha
  herbicidal action: 0%
[12]; 100 g AS/ha
  herbicidal action: 0%
[12]; 250 g AS/ha
  herbicidal action: 30%
[12]; 500 g AS/ha
  herbicidal action: 40%
[12]; pre-emergence, dose 50 g AS/ha
  Herbicidal action RAPRA: 0
[13]; 10 g AS/ha
  herbicidal action: 0%
[13]; 25 g AS/ha
  herbicidal action: 0%
[13]; 50 g AS/ha
  herbicidal action: 0%
[13]; 100 g AS/ha
  herbicidal action: 0%
[13]; 250 g AS/ha
  herbicidal action: 0%
[13]; 500 g AS/ha
  herbicidal action: 10%
[13]; pre-emergence, dose 50 g AS/ha
  Herbicidal action BRSNW: 0
[14]; 10 g AS/ha
  herbicidal action: 0%
[14]; 25 g AS/ha
  herbicidal action: 0%
[14]; 50 g AS/ha
  herbicidal action: 30%
[14]; 100 g AS/ha
  herbicidal action: 40%
[14]; 250 g AS/ha
  herbicidal action: 75%
[14]; 500 g AS/ha
  herbicidal action: 90%
[14]; pre-emergence, dose 50 g AS/ha
  Herbicidal action (crop damage) TRZAS: 30
[15]; 10 g AS/ha
  herbicidal action: 0%
[15]; 25 g AS/ha
  herbicidal action: 0%
[15]; 50 g AS/ha
  herbicidal action: 30%
[15]; 100 g AS/ha
  herbicidal action: 40%
[15]; 250 g AS/ha
  herbicidal action: 65%
[15]; 500 g AS/ha
  herbicidal action: 70%
[15]; pre-emergence, dose 50 g AS/ha
  Herbicidal action (crop damage) HORVS: 30
